Experimental data as given in article PMC5424463, “A strategy based on nucleotide specificity leads to a subfamily-selective and cell-active inhibitor of N ^6-methyladenosine demethylase FTO” (Chemical Science, 2014).
Where “and” joins values, the source holds several entries; their conditions need not be identical. Equal entries are not always repeated.

Legend:
Assay type in all cases: biochemical
[1] = molecular target: T1, AlkB (Escherichia coli, UniProt P05050); assay: HPLC-based inhibition assay for AlkB, m1A-ssDNA substrate
T1 construct: made in house; host or cells: E. coli BL21 (DE3) Rosetta T1R
T1 sequence (P05050 12-216): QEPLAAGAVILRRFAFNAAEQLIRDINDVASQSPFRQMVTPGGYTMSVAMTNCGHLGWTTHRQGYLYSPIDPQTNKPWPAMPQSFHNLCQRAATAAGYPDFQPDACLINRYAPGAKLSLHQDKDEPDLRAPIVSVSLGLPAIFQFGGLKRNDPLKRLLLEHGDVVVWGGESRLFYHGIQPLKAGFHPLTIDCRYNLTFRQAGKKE
Experimental: HPLC-based inhibition assays for AlkB and ALKBH2
The assay was modified from previously reported method.[18] A 15-mer m1A-ssDNA substrate with the sequence 5’-AAAGCAG(m1A)ATTCGAA-3 ’ (Yale University, W.M.
Keck Foundation Biotechnology Resource Laboratory) was used in this inhibition assay. The assay was performed in triplicate for each inhibitor, in a final reaction volume of 25 µL.
Reaction consisted of AlkB (1 µM) or ALKBH2 (2 µM), 2OG (50 µM), (NH4)2Fe(SO4)2·6H2O (50 µM), L-ascorbate (2 mM), m1A-ssDNA substrate (10 µM), in 50 mM HEPES buffer, pH 7.5, and inhibitor at various concentrations (final DMSO concentration not more than 1% v/v of assay mix). The reaction was incubated at 4°C for 10 min, before analysis on a bio-inert HPLC system. The m1A-ssDNA substrate and the corresponding demethylated product were separated using a Dionex DNAPac PA200 anion-exchange column (8 µm, […]) with a gradient of 98% solvent A (50 mM sodium citrate buffer, pH 5.5) to 65% solvent B (50 mM sodium citrate buffer, pH 5.5 with 1.25 M sodium chloride) over 18 min, at a flow rate of 1 mL/min at 40°C. The UV detection wavelength was set at 266 nm. The percentage inhibition was estimated based on the peak areas of the m1A-ssDNA substrate and the corresponding demethylated product. For IC50 determination, eight different concentrations of inhibitors were used (0, 1, 3, 10, 30, 100, 300, […]
different inhibitor concentrations, using nonlinear regression, with normalized dose-response fit on GraphPad Prism 6.0™. […]

[2] = molecular target: T2, ALKBH3 (Homo sapiens, UniProt Q96Q83); assay: MALDI-based inhibition assay for ALKBH3; details: 8-mer ssDNA substrate
T2 construct: Human ALKBH3 (encompassing residues 1- 286); purchased ProSpec-Tany Technogene Ltd, Israel
T2 sequence (Q96Q83 1-286): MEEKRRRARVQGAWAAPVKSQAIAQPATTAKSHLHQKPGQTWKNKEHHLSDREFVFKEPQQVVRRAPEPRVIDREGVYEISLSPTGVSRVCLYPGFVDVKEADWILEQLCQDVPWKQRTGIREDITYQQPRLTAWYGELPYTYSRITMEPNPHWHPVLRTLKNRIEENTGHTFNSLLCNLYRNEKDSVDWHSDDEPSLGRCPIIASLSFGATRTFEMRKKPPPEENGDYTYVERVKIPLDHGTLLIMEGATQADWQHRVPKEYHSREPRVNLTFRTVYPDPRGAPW
Experimental: MALDI-based inhibition assays for ALKBH3
An 8-mer m1A-ssDNA substrate with the sequence 5’-CAG(m1A)ATTC-3’ (Yale University, W.M. Keck Foundation Biotechnology Resource Laboratory) was used in this inhibition assay. The assay was performed in triplicate for each inhibitor, in a final reaction volume of 25 µL. Reaction consisted of ALKBH3 (2 µM), 2OG (150 µM), (NH4)2Fe(SO4)2·6H2O (150 µM), L-ascorbate (2 mM), […] (100 µM), in 50 mM HEPES buffer, pH 7.5, and inhibitor at various concentrations (final DMSO concentration not more than 1% v/v of assay mix). The reaction was incubated at room temperature for 30 min, before 1:1 quenching with 20% v/v formic acid. 1 uL of the diluted assay mixture was then mixed with 1 uL of 3-hydroxpicolinic acid (3-HPA, the MALDI-TOF-MS matrix, Sigma-Aldrich) and spotted onto the MALDI-TOF-MS plate before analysis. The 3-HPA matrix was prepared by mixing 9 parts of 50 mg/mL 3-hydroxpicolinic acid in 50% MeCN/Milli-Q H2O with 1 part of 50 mg/mL ammonium citrate in Milli-Q H2O.
The percentage inhibition was estimated based on the relative intensities of the methylated substrate and the demethylated product observed in the mass spectra. […]
Reaction consisted of PHD2 (4 µM), 2OG (150 µM),

[3] = molecular target: T3, ALKBH5 (Homo sapiens, UniProt Q6P6C2); assay: MALDI-based inhibition assay for ALKBH5, m6A-ssDNA substrate; details: read-out: IC50 (ALKBH5)
T3 construct: pNIC28-Bsa4 ALKBH5 (encompassing residues 66-292); made in house; host or cells: E. coli BL21 (DE3) Rosetta T1R
T3 sequence (Q6P6C2 66-292): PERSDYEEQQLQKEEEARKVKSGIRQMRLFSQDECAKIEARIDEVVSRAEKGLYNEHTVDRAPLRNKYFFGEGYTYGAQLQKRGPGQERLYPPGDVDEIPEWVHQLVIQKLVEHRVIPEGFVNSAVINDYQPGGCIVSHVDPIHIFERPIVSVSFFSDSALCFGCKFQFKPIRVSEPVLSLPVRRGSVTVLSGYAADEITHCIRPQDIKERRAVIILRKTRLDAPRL
Experimental: MALDI-based inhibition assays for FTO and ALKBH5
The assay was modified from previously reported method.[5] An 8-mer m6A-ssDNA substrate with the sequence 5’-TCA(m6A)CAGC-3’ (Yale University, W.M. Keck Foundation Biotechnology Resource Laboratory) was used in this inhibition assay. The assay was performed in triplicate for each inhibitor, in a final reaction volume of 25 µL. Reaction […]
µM), L-ascorbate (2 mM), m6A-ssDNA substrate (100 µM), in 50 mM HEPES buffer, pH 7.5, and inhibitor at various concentrations (final DMSO concentration not more than 1% v/v of assay mix). The reaction was incubated at room temperature for 30 min, before 1:1 quenching with 20% v/v formic acid. 1 uL of the diluted assay mixture was then mixed with 1 uL of 3-hydroxpicolinic acid (3-HPA, the MALDI-TOF-MS matrix, Sigma-Aldrich) and spotted onto the MALDI-TOF-MS plate before analysis. The 3-HPA matrix was prepared by mixing 9 parts of 50 mg/mL 3-hydroxpicolinic acid in 50% MeCN/Milli-Q H2O with 1 part […]
The percentage inhibition was estimated based on the relative intensities of the methylated substrate and the demethylated product observed in the mass spectra. For IC50 determination, eight different concentrations of […]
the variation in percentage demethylation at different inhibitor concentrations, using nonlinear regression, with normalized dose-response fit on GraphPad Prism 6.0™. […]

Row | Compound | IC50 [1] | IC50 [2] | IC50 [3]
1 | O=C(O)/C=C/C(=O)NNC(=O)c1cnccc1Cc1ccccc1 [Compound 12] | 33.5 µM | 66.2 µM | 108 µM
2 | O=C(O)C=CC(=O)NNC(=O)c1cc(Cc2ccccc2)ccn1 [Compound 22] | 67.1 µM | 53.5 µM | 105 µM
3 | O=C(O)/C=C/C(=O)NNC(=O)c1cccnc1 [Compound 21] | 169 µM | 115 µM | 168 µM and > 100 µM
4 | O=C(O)/C=C/C(=O)NNC(=O)c1ccccn1 [Compound 23] | 181 µM | 168 µM | 157 µM
